According to US8785600B2, “Anti-GCC antibody molecules and related compositions and methods” (Millennium Pharmaceuticals, Inc., priority 2009, dated 2014):
Several values for one entry are separate records, joined by “and”; a condition that tells them apart may be missing. Equal values may be shown once.

Assays:
[1] = test system: CT26 hGCC/luc #32 cells; experiment: Pilot efficacy study with naked antibody in CT26 hGCC/luc #32 disseminated model; settings: for Lung weight, T test P vs. vehicle: end of study
[2] = test system: GCC-ECD-Fc (TOK107-hIg); experiment: BIACORE T100 affinity measurement; type: binding, human; settings: for ka (M^−1s^−1) / kd (s^−1): Avg. (95% Conf. Int.); for ka / kd: single replicates, immobilized mAb, 22° C.
Experimental: Step 1: MAb 5F9 (Prep A) was diluted to 20 μg/mL in 10 mM sodium acetate, pH 4.0 and Reference 5F9 MAb (Prep B) was diluted to 10 μg/mL in 10 mM sodium acetate, pH 4.0. Each mAb was covalently immobilized to several CM4 BIACORE chips using standard amine coupling. For each CM4 chip prepared, Prep A 5F9 was immobilized over two flow cells at around 75-100 RU while Prep B 5F9 was immobilized to one flow cell at around 70-80 RU. The remaining fourth flow cell of each CM4 chip was used as the reference flow cell.
Step 2: The stock concentration of GCC-ECD-Fc (TOK107-hIg) was determined using the methods detailed by Pace et al. in Protein Science, 4:2411 (1995), and Pace and Grimsley in Current Protocols in Protein Science 3.1.1-3.1.9 (2003).
Step 3: For each prepared CM4 chip described in Step 1, GCC-ECD-Fc was injected for 2 minutes at a concentration range of 202 nM-1.6 nM (2× serial dilution) followed by a 7 minute dissociation. Samples were randomly injected in triplicate with several buffer inject cycles interspersed for double referencing. […] A flow rate of 100 μL/min was used for all experiments and all surfaces were regenerated with a 20 second pulse of 10 mM Glycine-HCl (pH 2.0). All samples were prepared in the running buffer which was Hepes-buffered saline, 0.005% polysorbate 20, pH 7.4 (HBS-P) with 100 μg/mL of BSA added.
Step 4: All sensorgram (plot of surface plasmon resonance vs time) data were processed with Scrubber 2.0 software (BioLogic Software, Campbell, Australia) and globally fit to a 1:1 interaction model including a term for the mass transport constant km using CLAMP™ software (Myszka and Morton Trends Biochem. Sci. 23:149-150 (1998)).
The 1:1 model provided a very good fit to the data as long as the mAb immobilization levels were kept low enough so that the Rmax resulting from the global analysis of the sensorgram data was at least below 12 RU for each surface. […] Data from two flow cells of GCC-ECD-Fc binding to Prep A 5F9 from the same CM4 chip were simultaneously fit whenever possible, however. […] This isn't surprising due to the fact that GCC-ECD-Fc is a bivalent construct and a higher surface density of immobilized mAb most likely increases the probability that the GCC-ECD-Fc binds avidly to the surface. Replicates reported for this study include only those data that fit well to the 1:1 interaction model. The resulting KD's and rate constants of all replicates for Prep A 5F9 and the Prep B reference mAb are listed in Table 9 and Table 10, respectively.

[3] = molecular target: T1, GCC ECD truncation mutants expressed in 293 cells (Homo sapiens, UniProt P25092); experiment: Binding to GCC ECD truncation mutants (IP / Western blot); settings: Δ1-32
T1 construct: Truncation mutants of the GCC ECD were generated (FL mature peptide and 8 truncations); expressed in transfected cells; host or cells: 293 cells (lysates, immunoprecipitation then anti-FLAG western blot)

[4] = test system: GCC-expressing cells (T84 cells compared to MCF-7 cells; vector control cells); experiment: Internalization assay (immunofluorescence microscopy); type: cell-based, human; settings: 10 μg/ml, 37° C.
Experimental: Internalization of anti-GCC antibody molecules was tested in both GCC-expressing cells and vector control cells, using immunofluorescence microscopy. Cells were grown on coverslips and placed on ice for 10 minutes prior to incubation with 10 μg/ml antibody in cold culture medium for 20 minutes on ice. For internalization, antibody-containing medium was replaced with fresh culture medium and the cells were shifted to 37° C. for 2-3 hours or maintained on ice. After rinsing in PBS and a brief fixation in 4% paraformaldehyde at room temperature, cells were permeabilized for 15 min in 0/5% TRITON X-100. The localization of the test antibody was determined using a fluorescently labeled anti-IgG antibody by laser scanning confocal microscopy. Antibody molecules localized to the cell surface of GCC-expressing cells when on ice.
Most of the antibodies generated herein were tested in a number of the assays described above. (T84=human colon tumor cells, MCF7=human breast tumor cells, WB=western blot, IP=immunoprecipitation, IHC=immunohistochemistry; internalization used T84 cells compared to MCF-7 cells)

Chain of GCC-ECD-Fc (TOK107-hIg) (as listed by the source): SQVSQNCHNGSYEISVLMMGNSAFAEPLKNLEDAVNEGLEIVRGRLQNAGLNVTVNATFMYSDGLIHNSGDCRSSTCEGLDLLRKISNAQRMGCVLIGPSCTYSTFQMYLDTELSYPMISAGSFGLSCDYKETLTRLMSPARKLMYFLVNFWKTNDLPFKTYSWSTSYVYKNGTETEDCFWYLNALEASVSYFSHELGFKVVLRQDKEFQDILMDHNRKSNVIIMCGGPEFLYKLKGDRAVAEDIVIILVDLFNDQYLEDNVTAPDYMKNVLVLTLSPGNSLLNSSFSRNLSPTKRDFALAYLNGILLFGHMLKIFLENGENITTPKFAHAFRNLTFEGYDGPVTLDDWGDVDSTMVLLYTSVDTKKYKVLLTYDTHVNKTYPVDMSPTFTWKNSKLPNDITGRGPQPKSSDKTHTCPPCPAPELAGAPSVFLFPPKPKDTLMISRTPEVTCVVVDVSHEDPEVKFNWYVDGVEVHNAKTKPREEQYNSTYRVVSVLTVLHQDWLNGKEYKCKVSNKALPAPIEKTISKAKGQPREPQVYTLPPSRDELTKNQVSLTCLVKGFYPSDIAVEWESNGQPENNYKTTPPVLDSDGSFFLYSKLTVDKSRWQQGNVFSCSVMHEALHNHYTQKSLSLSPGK
T1 sequence (P25092 33-430, stated change not applied): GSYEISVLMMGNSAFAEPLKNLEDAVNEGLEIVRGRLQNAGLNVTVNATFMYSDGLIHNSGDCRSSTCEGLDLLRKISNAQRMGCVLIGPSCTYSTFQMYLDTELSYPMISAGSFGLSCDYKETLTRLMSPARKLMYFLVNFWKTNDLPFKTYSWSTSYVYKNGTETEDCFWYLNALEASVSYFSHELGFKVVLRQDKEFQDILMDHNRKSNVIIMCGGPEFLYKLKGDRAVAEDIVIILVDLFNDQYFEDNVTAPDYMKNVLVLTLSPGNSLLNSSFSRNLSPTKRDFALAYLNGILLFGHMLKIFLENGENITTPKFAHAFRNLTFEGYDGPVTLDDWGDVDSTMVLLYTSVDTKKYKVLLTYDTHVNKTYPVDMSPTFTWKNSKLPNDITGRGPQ

Question: How did the “Lung weight, T test P vs. vehicle” value ([1]; 10 mg/kg) turn out when “5F9: Human anti-GCC mAb (IgG2, kappa) of hybridoma 5F9, ATCC PTA-8132; VH SEQ ID NO:18, VL SEQ ID NO:20; also engineered as IgG1” was run?
Answer: The value was less than 0.01.

Question: And the “In vivo MRI of lungs” value ([1]; 40 mg/kg)?
Answer: The value was “normal lung presentation was seen without evidence of tumor”.

Question: What about the “T/C (treatment/control)” value ([1]; 40 mg/kg and 10 mg/kg, 1×10^5 cells/mouse, day 34p.i, vs vehicle) of the same substance?
Answer: Its value is 0.04 to 0.05.

Question: And the “Lung weight, T test P vs. vehicle” value ([1]; 40 mg/kg)?
Answer: The value was less than 0.05.

Question: And the “T/C compared to the 209 group” value ([1]; 1×10^5 cells/mouse, day 34p.i)?
Answer: Its value is 0.18 to 0.14.

Question: And the “Benefit in 5×10^5 groups” value ([1]; 5×10^5 cells/mouse)?
Answer: The value was “No benefit was seen”.

Question: What about the “ka (M^−1s^−1)” value ([2]; listed as Prep A 5F9) of the same substance?
Answer: Its value is 1.10 (0.13) × 10^5 M^−1s^−1.

Question: And the “kd (s^−1)” value ([2]; listed as Prep A 5F9)?
Answer: The value was 1.46 (0.59) × 10^−5 s^−1.

Question: And the “ka (M^−1s^−1)” value ([2]; listed as Prep B 5F9)?
Answer: Its value is 1.07 (0.25) × 10^5 M^−1s^−1.

Question: What about the “kd (s^−1)” value ([2]; listed as Prep B 5F9) of the same substance?
Answer: The value was 1.13 (0.54) × 10^−5 s^−1.

Question: What about the “ka” value ([2]; listed as Prep A 5F9) of the same substance?
Answer: Its value is 96400 M⁻¹ s⁻¹ and 106000 M⁻¹ s⁻¹ and 120000 M⁻¹ s⁻¹ and 107000 M⁻¹ s⁻¹ and 122000 M⁻¹ s⁻¹.

Question: And the “kd” value ([2]; listed as Prep A 5F9)?
Answer: Its value is 1.77e-05 s⁻¹ and 1.19e-05 s⁻¹ and 1.1e-05 s⁻¹ and 2.15e-05 s⁻¹ and 1.11e-05 s⁻¹.

Question: And the “ka” value ([2]; listed as Prep B 5F9)?
Answer: The value was 96800 M⁻¹ s⁻¹ and 120000 M⁻¹ s⁻¹ and 90900 M⁻¹ s⁻¹ and 121000 M⁻¹ s⁻¹.

Question: And the “kd” value ([2]; listed as Prep B 5F9)?
Answer: The value was 7.64e-06 s⁻¹ and 1.24e-05 s⁻¹ and 9.57e-06 s⁻¹ and 1.54e-05 s⁻¹.

Question: And the “Binding to GCC ECD truncation mutant” value [3]?
Answer: The value was “binds cells with the Δ1-32 mutation”.

Question: What about the “Internalization (localization of antibody by confocal microscopy)” value [4] of the same substance?
Answer: The value was “punctuate staining within the cell membrane, indicative of internalization”.
